Laboratory results reported in PMC3278406 (PLoS ONE, 2012).
“Also recorded” adds a separate entry of the source.

Target: Stx2 toxoid (Escherichia phage 933W, UniProt P09386)
Assay type: binding, Escherichia coli O157:H7

Sequence of Stx2 toxoid (P09386 whole entry, looked up): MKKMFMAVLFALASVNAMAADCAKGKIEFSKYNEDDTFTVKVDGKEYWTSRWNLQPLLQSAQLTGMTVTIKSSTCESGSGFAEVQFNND

## CC(C)CCC[C@@H](C)[C@H]1CC[C@H]2[C@@H]3CC[C@H]4CCCC[C@]4(C)[C@H]3CC[C@]12C [5αCh, 5-α-Cholestane]
  Stx2 binding to Gb3 in the presence of sterol and PC: failed to support binding

## CCCCCCCCCCCCC/C=C/[C@@H](O)[C@@H](N)CO[C@@H]1O[C@H](CO)[C@@H](O[C@@H]2O[C@H](CO)[C@H](O[C@H]3O[C@H](CO)[C@H](O)[C@H](O)[C@H]3O)[C@H](O)[C@H]2O)[C@H](O)[C@H]1O [Lyso-Gb3, Lyso-globotriaosylsphingosine]
  Stx2 binding: did not bind

## CC(C)CCC[C@@H](C)[C@H]1CC[C@H]2[C@@H]3CC=C4C[C@@H](O)CC[C@]4(C)[C@H]3CC[C@]12C [cholesterol]
  change of Stx2 binding to Gb3 in the absence of cholesterol: statistically significant decrease
  change of Stx2 binding to Gb3 in the presence of cholesterol alone: statistically significant increase

## Asialo GM1 gangliosides [aGM1]
  Stx2 binding: failed to support binding

## Asialo GM2 gangliosides [aGM2]
  Stx2 binding: failed to support binding

## Galactosyl ceramide [Gal-Cer]
  Stx2 binding: failed to support binding

## Globotetraosyl ceramide [Gb4]
  Stx2 binding: increased binding
read-out: apparent Kd of Stx2
  Kd: 0.014 µM

## Globotriaosyl ceramide, Ceramide trihexoside [Gb3]
  Stx2 binding: poor binding; also recorded: increased binding
  concentration of Stx2 needed to reach saturated binding: above 1 µM

## Glucosyl ceramide [Glc-Cer]
  Stx2 binding: failed to support binding

## Lactosyl ceramide [Lac-Cer]
  Stx2 binding: failed to support binding
